From article PMC12509006, “Synthesis and Evaluation of Pyridine-Based Antibacterial Agents that Inhibit ATP Synthase in Acinetobacter baumannii” (ACS Omega, 2025)
Values after ≈ are worked out from the molar mass of the structure shown.

Tests used:
MDR AB BAA 1605 = experiment: Broth microdilution antimicrobial susceptibility assay, MDR isolate; conditions: Acinetobacter baumannii, BAA1605, read-out: MIC, MDR AB BAA 1605
AB BAA 1605 = experiment: Checkerboard assay with colistin sulfate, BAA 1605; conditions: for MIC: Acinetobacter baumannii, BAA1605, read-out: MIC alone, AB BAA 1605; for fold change of MIC, AB BAA 1605: alone vs +colistin; for fractional inhibitory concentration index (FICI) / interaction with colistin, MDR AB BAA 1605: synergistic FICI ≤ 0.5, additivity FICI 0.5 < x < 1
Procedure: (§1) Synthesized compounds in DMSO (2–128 μg/mL, row G-A) were combined with colistin sulfate in ultra purified water (0.125–32 μg/mL, column 2–10) in a 96-well microtiter plate checkerboard assay against ATCC 17978 and BAA-1605 (MDR). Briefly, liquid cultures of bacteria were grown for 14–16 h by inoculating a single bacterial culture into 10 mL TSB. To each well 88 μL of TSB, 10 μL of bacteria culture, and 1 from each master plate was added (see layout below). Plates were covered and incubated at 37 °C for 12–18 h.

[1] = molecular target: T1, A. baumannii ATP synthase (Acinetobacter baumannii, UniProt A3M139); experiment: AB ATP synthase inhibition: NADH-driven ATP synthesis in inverted inner membrane vesicles, luciferin/luciferase readout; assay type: biochemical; conditions: for IC50: Figure 2, read-out: IC50, AB ATP synthase inhibition (converted); for Hill coefficient (Hill slope): fit of ATP synthesis dose response curve
T1 construct: endogenous electron transport chains of inverted inner membrane vesicles were energized with NADH; endogenous in cells; host or cells: inverted inner membrane vesicles prepared from A. baumannii ATCC 17978 cells
T1 sequence (A3M139 whole entry): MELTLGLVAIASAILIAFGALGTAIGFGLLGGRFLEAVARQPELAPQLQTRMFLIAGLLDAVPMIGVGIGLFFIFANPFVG
Procedure: Once synthesized, the pyridine compounds were tested for their ability to inhibit ATP synthase activity using our previously reported luciferin/luciferase assay. Briefly, endogenous electron transport chains of inverted inner membrane vesicles were energized with NADH to generate a proton gradient and to drive ATP synthesis. ATP was measured via luminescence from the luciferase-catalyzed oxidation of D-luciferin. Luminescence activities across increasing inhibitor concentrations were corrected for gradient independent background sources of ATP by comparison with a control containing the protonophore CCCP (carbonyl cyanide 3-chlorophenylhydrazone). The data were then fit to a four-parameter logistic dose–response curve, from which IC50 values and Hill coefficients were determined using a nonlinear least-squares regression.
A. baumannii (ATCC 17978) cells were grown in LB medium at 37 °C with shaking at 150 rpm and harvested by centrifugation in the late exponential phase of growth. Cells were resuspended in TMG buffer (50 mM Tris-HCl, pH 7.5, 5 mM MgCl2, 10% v/v glycerol) with 1 mM phenylmethanesulfonyl fluoride, 1 mM dithiothreitol, and a small amount of DNase and lysed by two passes through an Avestin B15 homogenizer at 19,000 psi. Lysate was cleared by centrifugation at 9000g and inverted membrane vesicles were collected from the supernatant by centrifugation at 169,000g. To reduce background ATP synthesis activity in AB vesicles, it was important to wash the membranes by resuspending in TMG buffer and centrifuging again at 169,000g. Washed pellets were resuspended in TMG buffer, and aliquots were stored at −80 °C. Once thawed, aliquots were not refrozen. Protein concentration in membrane vesicles was determined using a modified Lowry assay.
In vitro ATP synthesis activity of inverted inner membrane vesicles was measured as previously described. A reaction solution was prepared containing 5 mM tricine-KOH, pH 8.0, 50 mM KCl, 2.5 mM MgCl2, 0.1 mM adenosine diphosphate, 3.75 mM potassium phosphate, and 2.5 mM NADH and distributed into a 96-well plate. NADH-driven ATP synthesis was initiated by addition of inverted vesicles to 50 μg/mL and allowed to proceed for 10 min. The reaction was stopped by transferring an aliquot into 1% trichloroacetic acid. The stopped reaction was diluted 100-fold with deionized water and a sample was transferred to luciferase solution containing 25 mM tricine-NaOH, pH 7.8, 5 mM MgSO4, 0.1 mM EDTA, 0.1 mM NaN3, 150 μg/mL luciferin, and 7.5 μg/mL luciferase. Luminescence was measured in an opaque white 96-well plate using a BioTek H1 multimode plate reader. Each replicate set included a positive control containing DMSO with no compound and a negative control containing carbonyl cyanide 3-chlorophenylhydrazone (CCCP). Luminescence values were corrected for background by subtracting the CCCP control and normalized to the luminescence of the DMSO control. Normalized activity was fit using a variable-slope dose response curve. Nonlinear regression, including prediction of 95% confidence bands, and pairwise comparisons of fits using the F-test method were completed using GraphPad Prism10. Relativeactivity=1/1+(c/IC50)^Hillslope […]
Figure S1. ATP synthesis inhibition by all pyridine compounds in order of WSA compound number. ATP synthesis activities in inverted inner membrane vesicles prepared from AB cells were measured in the presence of 0.0625-64 µg/mL, corrected for background ATP, and normalized to activity with DMSO alone (see methods). For each plot, dots are normalized activities at each concentration (n≥3) on a log 2 scale, solid lines are fitted dose response curves, and dashed lines show the 95% confidence range of the fit. IC50

HEK 293 cells = experiment: XTT cell viability cytotoxicity assay; conditions: n = 3, 24 h treatment
AB ATCC 17978 [2] = experiment: Broth microdilution antimicrobial susceptibility assay, susceptible isolate; conditions: Acinetobacter baumannii, ATCC17978, read-out: MIC, AB ATCC 17978
AB ATCC 17978 [3] = experiment: Checkerboard assay with colistin sulfate, ATCC 17978; conditions: for MIC: Acinetobacter baumannii, ATCC17978, read-out: MIC alone, AB ATCC 17978; for fold change of MIC, AB ATCC 17978: alone vs +colistin; for fractional inhibitory concentration index (FICI) / interaction with colistin, AB ATCC 17978: synergistic FICI ≤ 0.5, additivity FICI 0.5 < x < 1
Procedure: as §1

SMILES: CN1CCN(CCNCc2cc(-c3ccc(N(C)C)cc3)cnc2SCc2ccccc2)CC1 [WSA 276]
- MIC (MDR AB BAA 1605): 32 µg/mL (≈ 67.3 µM)
- MIC (AB BAA 1605): 32 µg/mL
- fold change of MIC, AB BAA 1605 (AB BAA 1605): 4
- fractional inhibitory concentration index (FICI) / interaction with colistin, MDR AB BAA 1605 (AB BAA 1605): synergy
- MIC +colistin, AB BAA 1605 (AB BAA 1605; with 0.25 μg/mL colistin): 8 (0.25 μg/mL Col)
- IC50 [1]: 673 nM
- Hill coefficient (Hill slope) [1]: -0.6
- MIC, HEK 293 (cytotoxicity) (HEK 293 cells): 16 µg/mL (≈ 33.6 µM)
- MIC (AB ATCC 17978 [2]): 16 µg/mL (≈ 33.6 µM)
- MIC (AB ATCC 17978 [3]): 16 µg/mL
- fold change of MIC, AB ATCC 17978 (AB ATCC 17978 [3]): 2
- MIC +colistin, AB ATCC 17978 (AB ATCC 17978 [3]; with 0.5 μg/mL colistin): 8 (0.5 μg/mL Col)

SMILES: Cc1ccc(-c2cnc(SCc3ccccc3)c(CNCCN3CCN(C)CC3)c2)cc1 [WSA 280]
- MIC (MDR AB BAA 1605): 32 µg/mL (≈ 71.6 µM)
- MIC (AB BAA 1605): 32 µg/mL
- fold change of MIC, AB BAA 1605 (AB BAA 1605): 2
- MIC +colistin, AB BAA 1605 (AB BAA 1605; with 0.125 μg/mL colistin): 16 (0.125 μg/mL Col)
- IC50 [1]: 1540 nM
- Hill coefficient (Hill slope) [1]: -0.8
- MIC, HEK 293 (cytotoxicity) (HEK 293 cells): 16 µg/mL (≈ 35.8 µM)
- MIC (AB ATCC 17978 [2]): 16 µg/mL (≈ 35.8 µM)
- MIC (AB ATCC 17978 [3]): 16 µg/mL
- fold change of MIC, AB ATCC 17978 (AB ATCC 17978 [3]): 2
- MIC +colistin, AB ATCC 17978 (AB ATCC 17978 [3]; with 0.5 μg/mL colistin): 8 (0.5 μg/mL Col)

SMILES: COc1ccc(-c2cnc(SCc3ccccc3)c(CNCCC3CCN(C4CCCC4)CC3)c2)cc1 [WSA 288]
- MIC (MDR AB BAA 1605): 32 µg/mL (≈ 62 µM)
- MIC (AB BAA 1605): 32 µg/mL
- fold change of MIC, AB BAA 1605 (AB BAA 1605): 4
- fractional inhibitory concentration index (FICI) / interaction with colistin, MDR AB BAA 1605 (AB BAA 1605): synergy
- MIC +colistin, AB BAA 1605 (AB BAA 1605; with 0.25 μg/mL colistin): 8 (0.25 μg/mL Col)
- IC50 [1]: 485 nM
- Hill coefficient (Hill slope) [1]: -0.9
- MIC, HEK 293 (cytotoxicity) (HEK 293 cells): 16 µg/mL (≈ 31 µM)
- MIC (AB ATCC 17978 [2]): 16 µg/mL (≈ 31 µM)
- MIC (AB ATCC 17978 [3]): 16 µg/mL
- fold change of MIC, AB ATCC 17978 (AB ATCC 17978 [3]): 4
- fractional inhibitory concentration index (FICI) / interaction with colistin, AB ATCC 17978 (AB ATCC 17978 [3]): ≤ 0.5

SMILES: Cc1ccc(-c2cnc(SCc3ccccc3)c(CNCCC3CCN(C4CCCC4)CC3)c2)cc1 [WSA 289]
- MIC (MDR AB BAA 1605): 32 µg/mL (≈ 64 µM)
- MIC (AB BAA 1605): 32 µg/mL
- fold change of MIC, AB BAA 1605 (AB BAA 1605): 2
- MIC +colistin, AB BAA 1605 (AB BAA 1605; with 0.125 μg/mL colistin): 16 (0.125 μg/mL Col)
- IC50 [1]: 480 nM
- Hill coefficient (Hill slope) [1]: -0.7
- MIC, HEK 293 (cytotoxicity) (HEK 293 cells): 16 µg/mL (≈ 32 µM)
- MIC (AB ATCC 17978 [2]): 16 µg/mL (≈ 32 µM)
- MIC (AB ATCC 17978 [3]): 16 µg/mL
- fold change of MIC, AB ATCC 17978 (AB ATCC 17978 [3]): 4
- fractional inhibitory concentration index (FICI) / interaction with colistin, AB ATCC 17978 (AB ATCC 17978 [3]): ≤ 0.5

SMILES: Fc1ccc(-c2cnc(SCc3ccccc3)c(CNCc3ccc(CN4CCCC4)cc3)c2)cc1 [WSA 298]
- MIC (MDR AB BAA 1605): 32 µg/mL (≈ 64.3 µM)
- MIC (AB BAA 1605): 32 µg/mL
- fold change of MIC, AB BAA 1605 (AB BAA 1605): 4
- fractional inhibitory concentration index (FICI) / interaction with colistin, MDR AB BAA 1605 (AB BAA 1605): synergy
- MIC +colistin, AB BAA 1605 (AB BAA 1605; with 0.25 μg/mL colistin): 8 (0.25 μg/mL Col)
- IC50 [1]: 1310 nM
- Hill coefficient (Hill slope) [1]: -0.8
- MIC, HEK 293 (cytotoxicity) (HEK 293 cells): 16 µg/mL (≈ 32.1 µM)
- MIC (AB ATCC 17978 [2]): 16 µg/mL (≈ 32.1 µM)
- MIC (AB ATCC 17978 [3]): 16 µg/mL
- fold change of MIC, AB ATCC 17978 (AB ATCC 17978 [3]): 2
- MIC +colistin, AB ATCC 17978 (AB ATCC 17978 [3]; with 0.25 μg/mL colistin): 8 (0.25 μg/mL Col)
